The results in this text go back to the Deep4Chem optical property database.

The nature of the data set: solvent given as SMILES.

As to `c1ccc(-n2c(-c3ccc(-c4ccc(-c5ccc(-c6nc7c8ccccc8c8ccccc8c7n6-c6ccccc6)cc5)cc4)cc3)nc3ccccc32)cc1`, the absorption maximum is recorded as 341 nm (in C1CCOC1); 344 nm (in C1COCCO1); 337 nm (in CC#N); 341 nm (in CCCCCC); 340 nm (in CCCCOCCCC); 341 nm (in CCN(CC)CC). In addition, the absorption maximum reads like this: (in CCOC(C)=O) 339 nm; (in CCOCC) 340 nm; (in CN(C)C=O) 342 nm; (in Cc1ccccc1) 345 nm; (in ClC(Cl)Cl) 340 nm; (in ClC=C(Cl)Cl) 343 nm. In addition, the absorption maximum (in ClCCl) is on record as 340 nm.
Regarding `N#Cc1cc(/C=C/c2ccc(N(c3ccccc3)c3ccccc3)cc2)ccc1-c1ccc(/C=C/c2ccc(N(c3ccccc3)c3ccccc3)cc2)cc1C#N`, under “in ClCCl”, the absorption maximum was 386 nm.
Turning to `F[B-]1(F)n2c(ccc2-c2nc3ccccc3s2)C(c2ccccc2)=C2C=CC(c3nc4ccccc4s3)=[N+]21`, under “in ClC(Cl)Cl”, the absorption maximum turned out to be 623 nm.
For the compound `CN(C)c1cccc2c1-c1ccccc1C2=O`, the absorption maximum is 412 nm (in C1CCCCC1), 439 nm (in CC#N), 438 nm (in CCO) and 433 nm (in c1ccccc1).
In the case of `COc1ccc(/C=C/C2=CC(c3ccccc3)=[O+][B-](F)(F)O2)cc1`, the absorption maximum (in ClCCl) is reported as 444 nm.
In turn, `CC1=CC(C)=[N+]2C1=C(c1ccc(I)cc1)c1c(C)cc(C)n1[B-]2(Oc1ccc([N+](=O)[O-])cc1)Oc1ccc([N+](=O)[O-])cc1` registered an absorption maximum (in ClC(Cl)Cl) of 505 nm.
Consider `CN(C)c1ccc(C2=Nc3sc4ccccc4[n+]3[B-](F)(F)O2)cc1`, for which the absorption maximum is 424 nm (in C1CCOC1); 421 nm (in CC#N); 425 nm (in CC(C)=O); 421 nm (in Cc1ccccc1); 425 nm (in ClCCl).
As for `C=CCN(CC=C)c1ccc(-c2cc(-c3ccc(N(CC=C)CC=C)cc3)cc(-c3ccc(N(CC=C)CC=C)cc3)c2)cc1`, the absorption maximum (in ClCCl) stood at 315.85 nm.
Consider `COc1cc2c(cc1OC)C1=C[C@H](c3ccc(Cl)cc3)C3(C(C#N)=C(C#N)N1CC2)c1cc(Cl)ccc1-c1ccc(Cl)cc13`, for which the absorption maximum (in ClCCl) was determined as 314 nm.
For the setting “in C1CCOC1”, `CCOC(=O)c1ccc(C2=CC3=c4cc(-c5ccc(C(=O)OCC)cc5)c5nc(C(F)(F)C(F)(F)C(F)(F)F)nc6c(-c7ccc(C(=O)OCC)cc7)cc(c4c65)C4=CC(c5ccc(C(=O)OCC)cc5)=C5N=C(C(F)(F)C(F)(F)C(F)(F)F)N=C2C5C43)cc1` (stereo not drawn) registered an absorption maximum of 497 nm.
In turn, `C[Si]1(C)O[Si](C)(C)c2cc3c(-c4ccccc4)c4cc(Cl)ccc4nc3cc21` displayed an absorption maximum (in ClCCl) of 376 nm.
On the same count and under the same terms, the same measure for `CN(C)c1ccc(/C=C/c2nc(/C=C/c3ccc(N(c4ccccc4)c4ccccc4)cc3)cc(/C=C/c3ccc(N(c4ccccc4)c4ccccc4)cc3)n2)cc1`: 409 nm.
Compound `CCCC1=Cc2nc1ccc1[nH]c(cc1CCC)c1nc(c3ccccc3c3[nH]c2cc3CCC)C(CCC)=C1` returned an absorption maximum (in Cc1ccccc1) of 762 nm.
`c1cc2c3c(cccc3c1)-c1c-2c2ccccc2c2ccccc12` returned an absorption maximum (in CCCCCCC) of 397 nm.
Under “in CO”, `COc1ccc(-c2cc(B(c3c(C)cc(C)cc3C)c3c(C)cc(C)cc3C)c(-c3sc(-c4ccc(OC)cc4)cc3P(=O)(c3ccccc3)c3ccccc3)s2)cc1` showed an absorption maximum of 402 nm.
Take `COc1ccc2c(=O)c3c([nH]c2c1)-c1ccccc1NC3(C)C`: the absorption maximum reads like this: (in C1CCOC1) 404 nm; (in CC#N) 415 nm; (in CCCCO) 424 nm; (in CCCO) 421 nm; (in CCO) 424 nm; (in CCOC(C)=O) 395 nm. Further, the absorption maximum reads like this: (in CN(C)C=O) 421 nm; (in CO) 424 nm; (in CS(C)=O) 424 nm; (in Cc1ccccc1) 397 nm; (in ClC(Cl)(Cl)Cl) 404 nm; (in ClCCl) 403 nm. The absorption maximum runs as follows: (in O) 383 nm; (in c1ccccc1) 402 nm.
Under “in ClCCl”, `CCN1c2ccc(C3=CC(c4ccccc4)=[O+][B-](F)(F)O3)cc2Sc2cc(C3=CC(c4ccccc4)=[O+][B-](F)(F)O3)ccc21` yielded an absorption maximum of 525 nm.
`COc1c(C(C)=O)c(=O)oc2cc(N(C)C)ccc12` yielded an absorption maximum (in ClCCl) of 373 nm.
Turning to `COc1nc(Nc2ccc3cc4ccccc4cc3c2)nc(OC)n1`, the absorption maximum is, setting by setting: (in C1COCCO1) 394 nm; (in CC#N) 395 nm; (in CCCCOCCCC) 398 nm; (in CCOC(C)=O) 395 nm.
As to `F[B-]1(F)OC(c2ccc(Br)cc2)=Cc2ccc3ccccc3[n+]21`, the absorption maximum (in ClC(Cl)Cl) is reported as 430 nm.
Turning to `CC(C)(C)Nc1cc2oc3cc(NC(C)(C)C)c(F)cc3c(=O)c2cc1F`, under “in CCO”, the absorption maximum is listed as 368 nm.
Consider `O=Cc1ccc(-c2ccc(C3=CCCCC3)s2)s1`, for which the absorption maximum worked out at 385 nm (in C1CCOC1); 358 nm (in CC#N); 381 nm (in CCCCCC); 389 nm (in CCO); 389 nm (in OCCOCCO); 392 nm (in c1ccncc1).
Where the note is “in Cc1ccccc1”, `Cc1cc(-n2c3ccccc3c3cc4c(cc32)C2c3ccccc3C4c3ccccc32)c(C)cc1-c1nc(-c2ccccc2)nc(-c2ccccc2)n1` registered an absorption maximum of 345 nm.
With `CCCCC(CC)CN1C(=O)c2cccc3c(C#Cc4ccc(N(c5ccccc5)c5ccc(C#Cc6ccc7c8c(cccc68)C(=O)N(CC(CC)CCCC)C7=O)cc5)cc4)ccc(c23)C1=O` (stereo not drawn), the absorption maximum was determined as 453 nm (in C1CCCCC1); 451 nm (in C1CCOC1); 456 nm (in CC#N); 452 nm (in Cc1ccccc1); 466 nm (in ClC(Cl)Cl).
On to `O=C1OC(=O)[C@H]2[C@@H]1[C@@H]1C[C@H]2c2c1c(-c1ccccc1)c1ccccc1c2-c1ccccc1`, for which the absorption maximum (in ClC(Cl)Cl) was found to be 295 nm.
In turn, `Cc1cc2nc3c(=O)[nH]c(=O)n(C)c3nc2cc1C` returned an absorption maximum (in CC#N) of 379 nm.
Consider `CC(C)(C)c1ccc(N(c2ccc(C(C)(C)C)cc2)c2cc(N(c3ccc(C(C)(C)C)cc3)c3ccc(C(C)(C)C)cc3)c3ccc4cc(C(C)(C)C)cc5ccc2c3c54)cc1`, for which the absorption maximum (in ClCCl) is 425 nm.
Take `CCCCCCCCCCCCN1C(=O)c2cccc3c(N(Cc4ccccn4)Cc4ccccn4)c4ccccc4c(c23)C1=O`: the absorption maximum by setting is: (in C1CCOC1) 497 nm; (in CCCCCC) 480 nm; (in CCO) 488 nm; (in Cc1ccccc1) 492 nm; (in ClCCl) 500 nm.
With `CC[n+]1c(-c2ccccc2)c2cc(N)ccc2c2ccc(-n3cccc3)cc21`, the absorption maximum (in O) is 454 nm.
Take `CO[Si](c1c2ccccc2cc2ccccc12)(c1c2ccccc2cc2ccccc12)c1c2ccccc2cc2ccccc12`: under “in ClC(Cl)Cl”, the absorption maximum was 401 nm.
With `COC(=O)c1nc2c(N(C)C)nc(N(C)C)nc2n1Cc1ccccc1`, the absorption maximum runs as follows: (in C1COCCO1) 344 nm; (in CC#N) 347 nm; (in CO) 347 nm; (in ClCCl) 351 nm.
Take `C[C@]12SC(=O)C=C1c1nc(-c3ccccc3O)[nH]c1C1=CC(=O)S[C@@]12C`: the absorption maximum (in CC#N) was found to be 455 nm.
Take `O=[N+]([O-])c1ccc(NCCN(Cc2c3ccccc3cc3ccccc23)c2ccc([N+](=O)[O-])cc2[N+](=O)[O-])c([N+](=O)[O-])c1`: the absorption maximum by setting is: (in C1CCCCC1) 355 nm; (in C1CCOC1) 372 nm; (in CC#N) 371 nm; (in CC(C)=O) 371 nm; (in CCO) 368 nm; (in CN(C)C=O) 267 nm. Moreover, the absorption maximum (in CO) is on record as 369 nm and the absorption maximum (in ClC(Cl)Cl) was 355 nm.
Regarding `C[SiH]1c2ccccc2-c2cc3c(cc21)-c1ccccc1[SiH]3C` (stereo not drawn), the absorption maximum (in ClCCl) is 324 nm.
Turning to `C(=C\c1nc2c(c(N3CCOCC3)n1)CCCC2)/c1ccccc1`, the absorption maximum (in ClCCl) is 284 nm.
Still for that read-out and setting: in the case of `Cc1ccc(-c2cnc3ccc4ccccc4n23)cc1` it was 324 nm.
In turn, `Cc1nc2cccc(-c3nc4ccccc4[nH]3)c2c(=O)[nH]1` had an absorption maximum (in CN(C)C=O) of 313 nm.
`CC1(C)CCc2c(c3ccccc3c3nc4c(nc23)c2c(c3ccccc34)OC(C)(C)CC2)O1`: the absorption maximum by setting is: (in C1CCCCC1) 431.03 nm; (in C1COCCO1) 434.97 nm; (in CC#N) 434.97 nm; (in CC(C)O) 431.97 nm; (in CCCCCC) 429.92 nm; (in ClC(Cl)Cl) 437.06 nm. In addition, under “in c1ccccc1”, the absorption maximum worked out at 434.97 nm.
In turn, `C(#Cc1ccc(-n2c3ccccc3c3ccccc32)cc1)c1ccc(-c2nc(-c3ccc(C#Cc4ccc(-n5c6ccccc6c6ccccc65)cc4)cc3)nc(-c3ccc(C#Cc4ccc(-n5c6ccccc6c6ccccc65)cc4)cc3)n2)cc1` came in with an absorption maximum (in ClCCl) of 361 nm.
Still for that read-out and setting: in the case of `C[Si]1(C)C(c2ccccc2)=Cc2ccccc21` it was 333 nm; in that of `Cn1cc(-c2nc3ccccc3nc2C#Cc2ccc(C#N)cc2)c2ccccc21`, 418 nm.
In the case of `C[N+]1=C(/C=C/C=C2/N(CCC[N+](C)(C)C)c3ccc(Br)cc3C2(C)C)C(C)(C)c2ccccc21`, the absorption maximum (in CS(C)=O) is on record as 556 nm.
In the case of `CCCCCCn1c2ccccc2c2cc3c4cc5c6ccccc6n(CCCCCC)c5cc4c4cc5c(C)cc(=O)oc5cc4c3cc21`, the absorption maximum (in ClC(Cl)Cl) was 393 nm.
Turning to `Cc1ccc(OCc2cc(=O)oc3c2ccc2ccccc23)cc1`, the absorption maximum is recorded as 352 nm (in C1CCOC1); 352 nm (in C1COCCO1); 351 nm (in CCOC(C)=O); 352 nm (in CO); 354 nm (in Cc1ccccc1); 354 nm (in ClCCl).
